Laboratory results published in patent US10266823B2, “Small molecules that enhance the activity of oligonucleotides” (The University of North Carolina at Chapel Hill, priority 2014, dated 2019).

Key:
A375Luc705 cells = assay: Luciferase induction by RGD-SSO-albumin conjugate; format: cell-based, human; conditions: 2 h, 100 nM RGD-SSO-albumin conjugate
Experimental: FIG. 2. Effects on Receptor-Targeted oligonucleotides. A375Luc705 cells were treated with 100 nM RGD-SSO-albumin conjugate for 16 h and subsequently treated with Retro-1 (100 uM) or 7938 (5, 10 uM) for 2 h. After removal of the compound the cells were incubated for a further 24 h and then assayed for luciferase and cell protein. (A) Control; (B) RGD-SSO conjugate only; (C) RGD-SSO conjugate plus Retrol; (D) RGD-SSO conjugate plus 5 uM 7938; (E) RGD-SSO conjugate plus 10 uM 7938. Means+/−SE. N=3.
Our laboratory has pursued the use of ligand-oligonucleotide conjugates to attain receptor-selective targeted delivery (Alam, M. R., et al., Bioconjugate chemistry, 22, 1673-1681 (2011), Ming, X., et al., Biomaterials, 34, 7939-7949 (2013), Nakagawa, O., et al., Bioconjugate chemistry, 25, 165-170 (2014)). Thus we were interested in whether our compounds would affect oligonucleotides that enter cells by receptor-mediated endocytosis. We used a previously described (Ming, X., et al., Biomaterials, 34, 7939-7949 (2013)) multivalent conjugate comprised of several RGD peptide-conjugated morpholino SSOs further conjugated via bioreversible links to serum albumin as a carrier. […] We examined luciferase induction in αvβ3-expressing A375 melanoma cells that contain the Luc705 expression cassette. […] Thus 7938 can substantially enhance effects of receptor targeted oligonucleotide conjugates. […]

HeLaLuc705 cells [1] = assay: SSO623-mediated luciferase induction (splice correction), 24 well format; format: cell-based, human; conditions: for enhancement of luciferase induction as compared to SSO alone: 2 h, 100 nM SSO623
Experimental: FIG. 1B. SSO Dose-response of hit compounds. Selected hits were examined for their ability to enhance splice correction by SSO623 in the HeLa Luc 705 cell system. Cells were incubated in 24 well plates with 100 nM 623 or its mismatched control (MM) for 16 h in DMEM+10% FBS, rinsed, and then treated with various concentrations of the hit compounds, or with 100 uM Retro-1, for 2 h. The cells were then rinsed and incubation continued for an additional 4 h in DMEM+10% FBS. Cells were rinsed twice in PBS and luciferase activity (RLU) and cell protein determined. Means+/−SE. N=3. Mismatched controls were at baseline level on this scale and are not shown.
(§1) Luciferase induction dose-response curves in a 24 well plate format with normalization on cell protein were performed as previously described (Alam, M. R. et al., Nucleic Acids Res, 36, 2764-2776 (2008), Ming, X., et al., Nucleic Acids Res, 38, 6567-6576 (2010)). Splicing modulation of the EGFP654 reporter and of endogenous Bcl-X were monitored by RT-PCR using appropriate primers. Evaluation of hit compound effects on antisense actions involved ‘knockdown’ of MDR1 pre-mRNA and its protein product in multi-drug resistant mouse 3T3 cells. Cell surface expression of P-glycoprotein was monitored using an Alexa-488 conjugated monoclonal antibody and flow cytometry as previously described (Ming, X. et al., Nucleic Acids Res, 41, 3673-3687 (2013), Fisher, M., et al., Nucleic Acids Res, 35, 1064-1074 (2007)). Evaluation of effects on siRNA utilized a HeLa cell line stably transfected with an EGFP expression cassette. Cholesterol-conjugated siRNAs were used to attain sufficient uptake. Cells were incubated with the siEGFP or control siRNA, rinsed, and then briefly exposed to hit compound. After further incubation expression of EGFP was monitored by flow cytometry. In cases where treatment with Lipofectamine 2000 was used as a positive control, the manufacturer's protocol was followed.

[2] = test system: HeLa cell line stably transfected with an EGFP expression cassette; assay: Cholesterol-conjugated siEGFP reduction of EGFP, flow cytometry; format: cell-based, human; conditions: cholesterol-conjugated siRNA
Experimental: as §1

EGFP654 mice = assay: Acute toxicity, blood chemistry parameters in EGFP654 mice; format: in vivo, mouse; conditions: 7.5 mg/kg i.v.; data not shown
Excerpt: (§2) All animal procedures were in accordance with guidelines of the UNC Laboratory Animal Medicine Department and with federal guidelines. The EGFP654 transgenic mouse has been described previously (Sazani, P., et al., Nature biotechnology, 20, 1228-1233 (2002), Roberts, J., et al., Mol Ther, 14, 471-475 (2006)). A reporter gene comprised of the EGFP coding sequence is interrupted by an aberrantly spliced intron. Delivery of an appropriate SSO to the nucleus of tissue cells will correct splicing leading the expression of normal EGFP mRNA and protein. EGFP654 mice were administered 25 mg/kg SS0623 or mis-matched oligonucleotide in PBS by intra-peritoneal injection on two consecutive days. One day later the mice received 7.5 mg/kg UNC10217938A intravenously in a diluent of 5% PEG400, or diluent only. After 24 h the mice were euthanized and cardiac blood and tissues samples collected. Tissues for fluorescence microscopy to visualize EGFP were fixed in cold 1.5% paraformaldehyde in PBS and then processed for cryosectioning (Sazani, P., et al., Nature biotechnology, 20, 1228-1233 (2002)). Tissues for RNA analysis were collected from mice euthanized at 4 h and ere quick frozen on dry ice. All procedures involving live animals were conducted by the UNC Animal Studies Core facility. Blood samples were analyzed by the UNC Animal Clinical Chemistry Core facility.

HeLa cells = assay: Live cell confocal microscopy: subcellular distribution of TAMRA oligonucleotide and organelle markers; format: cell-based, human
Experimental: FIG. 3A: Effects on Cell Morphology and Subcellular Distribution of Oligonucleotide: Quantitation of Colocalization. HeLa cells were transfected with baculovirus expression vectors for GFP-Rab7a (late endosome marker) or GFP-LAMP-1 (lysosome marker). The cells were then incubated with 300 nM SSO 623-TAMRA for 16 h. Cells were then treated with 10 uM 7938 for 1 h or maintained as controls. Live cells were imaged using a confocal microscope with environmental stage. Co-localization of GFP and TAMRA oligonucleotide was quantitated using the Image J Coloc2 plug-in and expressed as the Manders correlation coefficient. Individual cells were analyzed and the data summated. Means and standard errors shown. N=9-20. ** represents p<0.002 compared to Rab 7 control.
FIG. 3B. Effects on Cell Morphology and Subcellular Distribution of Oligonucleotide: Nuclear Accumulation. TAMRA fluorescence intensity in the nucleus was quantitated using Image J. Means and standard errors shown. N=55-70. *** represents p<0.001 compared to Control.
Quantitative live cell confocal microscopy (Dunn, K. W., et al., Am J Physiol Cell Physiol, 300, C723-742 (2011)) was performed to examine the subcellular distribution of fluorescent oligonucleotide or of certain markers for endomembrane compartments. Cells (HeLa) were transfected with baculovirus expression vectors for GFP chimeras of marker proteins for several endomembrane compartments. The day following transfection, cells were incubated for 4 h with 300 nM TAMRA conjugated SSO 623 in OptiMEM after which the cells were washed and incubated in DMEM medium with 1% FBS. In some cases hit compounds were added during or after the incubation. Cells were imaged on an Olympus FV1000 MPE laser scanning confocal microscope with environmental chamber to maintain 37 C, 40% humidity and 5% C02. We used 488 nm (GFP) and 559 nm (TAMRA) as laser lines, and images were collected with a 60× oil immersion lens. Quantitation of co-localization of oligonucleotide and marker proteins utilized the Coloc2 plug-in in Image J. In some cases GFP markers for organelles were examined in cells previously fixed in 4% formaldehyde in PBS.

EGFP654 transgenic mouse = assay: In vivo splice correction in EGFP654 transgenic mouse
Excerpt: FIG. 4. In vivo effects: Quantitation of RT-PCR. Gel bands were quantitated using a Typhoon imaging system. Percent of switching is the ratio of lower band to upper band ×100. *** difference from PBS control significant at the 0.001 level.
as §2
In the EGFP654 transgenic line a reporter gene comprised of the EGFP coding sequence is interrupted by an aberrantly spliced intron. Effective delivery of an appropriate SSO to the nucleus of tissue cells will correct splicing leading to expression of normal EGFP mRNA and protein in that tissue. We visualized EGFP expression by fluorescence microscopy of tissue cryosections and evaluated correction of EGFP pre-mRNA splicing by RT-PCR. […]

C57BL/6 mice = assay: 7 day toxicity study; format: in vivo; conditions: doses that overlap those of FIG. 4, data not shown
HeLaLuc705 cells [3] = assay: High throughput screen, SSO623 luciferase induction, 384 well; format: cell-based, human; conditions: library compounds at 25 uM, 5 h; 100 nM SSO623
Experimental: Our high throughput screen (HTS) utilized HeLaLuc705 cells. Delivery of an appropriate SSO to the nucleus corrects splicing and induces luciferase expression thus providing an easily interpreted positive readout (Iam, M. R. et al., Nucleic Acids Res, 36, 2764-2776 (2008), Ming, X., et al., Nucleic Acids Res, 38, 6567-6576 (2010)). Cells were trypsinized, rinsed, and suspended in Opti-MEM at 300,000 cells/ml; SSO623 was added to a final concentration of 100 nM. No lipid or polymer transfection agents were used in these assays. Opti-MEM (15 ul) followed by cell suspension (20 ul) was added to wells of 384 well plates. Cells were allowed to attach and incubate with the SSO for 16 h. During this 16 h period a set of positive control wells received chloroquine to a final concentration of 300 uM while a set of negative control wells received diluent. After the initial incubation the remaining wells received library compounds to a final concentration of 25 uM. Incubation with library compounds was at 37 C for 5 h at which time the cells were harvested and analyzed for luciferase induction. Library compounds that produced an induction of 50% that of the positive controls were considered positive in this assay and were further analyzed. Dose-response curves were developed comparing SSO623 with a mis-matched oligonucleotide. […]

[4] = test system: P-glycoprotein multidrug transporter in multi-drug resistant 3T3 cells; assay: Antisense knockdown of P-glycoprotein (anti-MDR1 ASO), flow cytometry; format: cell-based, mouse
Experimental: as §1, with “followed. […]” for “followed.”

[5] = 10 uM, 1 h, Manders correlation coefficient

Row | Compound | ability of the conjugate to induce luciferase (A375Luc705 cells; 100 uM compound) | enhancement of luciferase induction as compared to SSO alone (HeLaLuc705 cells [1]; 100 uM compound) [fold] | ability of the conjugate to induce luciferase (A375Luc705 cells; 5 or 10 uM compound, compared with 100 uM Retro-1) | enhancement of luciferase induction as compared to SSO alone (HeLaLuc705 cells [1]; 10 uM compound) [fold] | enhancement of luciferase induction as compared to SSO alone (HeLaLuc705 cells [1]; 20 uM compound) [fold] | amount of SSO at which strong induction effects were observed (HeLaLuc705 cells [1]; SSO varied, constant concentration of compound) [nM] | ability of siEGFP to reduce levels of EGFP [2] | acute toxicity (blood chemistry parameters) (EGFP654 mice) | co-localization of TAMRA-oligonucleotide with late endosome marker Rab7 (HeLa cells; [5]) | co-localization of TAMRA-oligonucleotide with lysosomal marker LAMP-1 (HeLa cells; [5]) | accumulation of Tamra-oligonucleotide in the nucleus (HeLa cells; TAMRA fluorescence intensity in the nucleus) | release of fluorescent dextran from endosomes (HeLa cells; dextran of molecular mass similar to an oligonucleotide, data not shown) | EGFP fluorescence in liver, kidney and heart (EGFP654 transgenic mouse; SS0623 25 mg/kg i.p. on two days, then 7.5 mg/kg compound i.v., 24 h) | correction of EGFP pre-mRNA splicing by RT-PCR in liver, kidney and heart (EGFP654 transgenic mouse; SS0623 followed by compound, RNA at 4 h) | EGFP induction in skeletal muscle (EGFP654 transgenic mouse; SS0623 followed by compound, data not shown) | toxicity (C57BL/6 mice) | activity in high throughput screen (HeLaLuc705 cells [3]) | amount of ASO at which strong effects were observed ([4]; ASO varied, constant concentration of compound) [nM] | enhancement of ASO action (P-glycoprotein knockdown) ([4]; anti-MDR1 ASO, data not shown)
1 | CCC(=O)N1CC(=O)Nc2ccc(Br)cc2C1c1ccccc1 (stereo not shown) [Retro-1, reference compound] | increased | 11 | – | – | – | – | – | – | – | – | – | – | – | – | – | – | – | – | –
2 | CCOC(=O)Nc1cc(NCCN(C)C)c2nc(-c3ccccc3)c(-c3ccccc3)nc2n1 [compound 7938] | – | – | far larger impact | 60 | 220 | 3 | enhanced | did not result in acute toxicity | major reduction | little effect | increase | partially released | distinct increases | correctly spliced EGFP message was found | not strongly affected | no significant evidence of toxicity | active | 5 | strongly enhanced
